Common to all, as to type: cell-based
One test relates to E. coli, ATCC 53505. Nature of the test: Effect on E. coli growth (optical density at 540 nm). The note with it: OD 540 nm at 1, 2 and 3 hours. On the procedure:
To test whether hyaluronic acid could influence cellular growth, E. coli, ATCC 53505 cells were cultured overnight in trypticase soy broth. The culture was then diluted to an optical density of 0.1 and hyaluronic acid (1 mg/ml or 5 mg/ml) in PBS was incubated with the E. coli suspension. A control comprising a suspension E. coli treated with PBS was also prepared. The test and control cells were incubated at 37° C. with shaking and the optical density of the bacterial suspensions at 540 nm was measured at 1, 2 and 3 hours after addition of the hyaluronic acid or PBS.
(§1) All the data are expressed as mean±SEM and were analyzed by one-way Analysis of Variance (ANOVA) followed by a Tukey-Kramer Multiple Comparisons Test. Differences were considered significant at the level of p<0.05.

The test system of test [1] is E. coli with P family pili, ATCC 53505. Nature of the test: E. coli adhesion to A431 epithelial cells. The note with it: A431 cells pre-incubated 30 minutes, OD 540 nm of 2 hr culture of bound bacteria. The protocol: Cultured A431 cells were used as a vaginal epithelial model. A431 cells were obtained from American Cell Type Culture Collection, catalog # CRL-1555. A monolayer of A431 cells was grown on a 24-well tissue culture plate until confluent.
E. coli with P family pili, ATCC 53505, were cultured in trypticase soy broth (TSB) overnight. Phosphate buffered saline (PBS, control) or hyaluronic acid (Sigma catalog # H 1876) solutions at a concentration of 1 mg/ml or 5 mg/ml in PBS was added to the A431 cell layers, using a volume of 1.2 ml/well. After incubation for 30 minutes at 37° C., 0.7 ml of solution was removed from the wells and 0.5 ml of the bacteria suspension was added. […] After 60 minutes, the supernatant in each well was removed and the wells were rinsed thoroughly with PBS to remove all non-bound bacteria. Trypticase soy broth was then added to wells, and the whole system was incubated at 37° C. with shaking for 2 hours. Bacterial concentration was measured by the detection of optical density of bacterial suspension at 540 nm.
as §1

Test [2] has as its system Candida albicans, ATCC 10231. Kind of test: Adherence of Candida albicans to A431 cells. Conditions: for number of Candida albicans adhering to A431 cells: A431 cells pre-incubated 30 minutes, colony count. The protocol: A culture of Candida albicans, ATCC 10231, was started as a frozen bead in peptone/glucose culture medium and incubated at 37° C. with shaking for three days before the experiment. A monolayer of A431 cells, ATCC CRL-1555, was grown on a 24-well tissue culture plate until confluent. Hyaluronic acid at concentration of 1 mg/ml PBS or 5 mg/ml PBS was added to the wells (1.2 ml/well), and the plates were incubated for 30 minutes at 35° C. A control plate of confluent A431 cells was also prepared that received 1.2 ml/well PBS and no hyaluronic acid. After the 30 min incubation, 0.7 ml of solution was removed from the wells and 0.5 ml of yeast suspension (1×10^6 cfu/ml) was added. After 2 hours of incubation, the supernatant was removed from the wells and the wells were rinsed thoroughly with PBS to remove all non-bound yeast. Then, 0.2 ml of 0.25% trypsin/EDTA was added to each well and the plates were incubated at 35° C. for 15 min. Trypsinization was stopped by adding 1 ml of 10% fetal bovine serum in culture medium. The trypsinized cell/yeast suspension was centrifuged and re-suspended in 1 ml of the medium. Serial dilutions of the Candida albicans/A431 cell suspension were plated on Sabouraud's dextrose agar plates and incubated overnight at 35° C. The number of colonies on each plate was counted and the number of yeast attached to the cells in each well was calculated.
All the data are expressed as mean ±SEM and were analyzed by one-way Analysis of Variance (ANOVA) followed by a Tukey-Kramer Multiple Comparisons Test. Differences were considered significant at the level of p<0.05.

As for hyaluronic acid, the “effect on bacterial growth” value was “neither of the hyaluronic acid solutions had any effect on bacterial growth” with E. coli, ATCC 53505 (1 mg/ml in PBS) and “neither of the hyaluronic acid solutions had any effect on bacterial growth” with E. coli, ATCC 53505 (5 mg/ml in PBS). The “number of E. coli attached to A431 cells” value in test [1] (1 mg/ml in PBS) is recorded as “lesser effect”; in test [1] (5 mg/ml in PBS) it was “significantly inhibited”. Moreover, the “number of Candida albicans adhering to A431 cells” value is listed as “the effect was not so significant” in test [2] (1 mg/ml in PBS) and “significantly inhibited” in test [2] (5 mg/ml in PBS). Also, the “number of yeast colonies from treated A431 cells (FIG. 4)” value in test [2] (versus PBS-treated A431 cells, concentration not given) is “fewer yeast colonies”.

These data come from US7238677B2, “Prevention of urogenital infections” (Kimberly-Clark Worldwide, Inc., priority 2003, dated 2007).
